The results in this text go back to publication PMC9655037, “Alternation of Organ-Specific Exposure in LPS-Induced Pneumonia Mice after the Inhalation of Tetrandrine Is Governed by Metabolizing Enzyme Suppression and Lysosomal Trapping” (International Journal of Molecular Sciences, 2022).

Molecules are shown by their SMILES.

One data set addresses MDR1 (P-gp) (Homo sapiens, UniProt P08183). Description: Bidirectional transport in MDR1-transfected LLC-PK1 cells. Here is the method: (§1) MDR1 expressing LLC-PK1 cells or MOCK LLC-PK1 cells were utilized to identify whether P-gp is involved in the efflux transport across the membrane barrier. Cells were cultured as described above. Cells were seeded at a density of 2 × 10^4 in Millicell® 24-well cell culture plates with a 6.5 mm insert (0.4 µm polycarbonate membrane) from Corning (Kennebunk, ME, USA) 7 days before the experiments. On the day of the experiment, transepithelial electrical resistance (TEER) was measured to assess monolayer integrity. After washing the cells twice with HBSS, transport experiments in either the apical-to-basolateral direction (A-B) or the basolateral-to-apical direction (B-A) were conducted. […] After incubating the plates at 37 °C for 2 h, samples from the receiving and donor wells (50 μL) were taken simultaneously. All the samples were stored at −40 °C for LC-MS/MS analysis.
(§2) In the bidirectional transport study in LLC-PK1 cells, the following equations were used to calculate Papp values and the MDR1 efflux ratio.

The target of a further data set is MDR1 (Homo sapiens, UniProt P08183). The data set is described as above. To be noted: MDR1-transfected; 2 μM TET, 10 μM metoprolol, 10 μM atenolol, 2 μM digoxin; TAR 5 μM where stated; 2 h, 37 °C. The procedure:
as §1, §2

Data set [1] can be described thus: Bidirectional transport in MOCK LLC-PK1 cells. To be noted: pig. The procedure:
as §1, §2

The next data set concerns HEK293-MOCK cells. Briefly: Uptake by MOCK (empty vector) HEK293 cells. To be noted: positive control 20 μM, 10 min. Here is the method:
(§3) Expressing OATP1B1/OATP1B3 or MOCK HEK293 cells were utilized to evaluate whether TET is a substrate of these two SLC transporters. Cell culture was performed as mentioned above. Cells were seeded on 96-well plates at the density of 0.8 × 10^5 cells/well. The culture medium was replaced with a medium containing 5 mM sodium butyrate for 24 h before the transport study to enhance the expression of transporters. For the transport assay, the DMEM media were removed and the cells were washed with pre-warmed Krebs–Henseleit buffer twice (0.1 mL/well). The second washing buffer was kept in the wells and the plate was incubated at 37 °C for 5 min before the uptake assay was initiated. […] The incubation solution was removed and the cells were washed with ice-cold transportation buffer three times (0.1 mL/well). A total of 0.1 mL pure water was added to each well to lyse the cells by repeated freezing and thawing (−196 °C–37 °C, three times). The cell lysate was collected and stored at −40 °C for LC-MS/MS analysis and protein measurement.
(§4) In the uptake study of TET by OATP1B1 and OATP1B3 expressing the HEK293 cell line, the uptake clearance (U) of the substrate was calculated according to Equation (5), the transporter-mediated uptake ratio (UR) was calculated by dividing the uptake clearance from transporter-expressing cells to that from the mock cells according to Equation (6), and the inhibition ratio (IR) was calculated according to Equation (7), where p represents the protein content and T is the duration of the incubation time. (5) U=Clysate/p×T (6) UR=U/UMOCK (7) IR=(1−Uwith inhibitor−Umock with inhibitor/Uwithout inhibitor−Umock without inhibitor)×100

For another data set, the target named is T1, OATP1B3 (Homo sapiens, UniProt Q9NPD5).
T1 sequence (Q9NPD5 1-702): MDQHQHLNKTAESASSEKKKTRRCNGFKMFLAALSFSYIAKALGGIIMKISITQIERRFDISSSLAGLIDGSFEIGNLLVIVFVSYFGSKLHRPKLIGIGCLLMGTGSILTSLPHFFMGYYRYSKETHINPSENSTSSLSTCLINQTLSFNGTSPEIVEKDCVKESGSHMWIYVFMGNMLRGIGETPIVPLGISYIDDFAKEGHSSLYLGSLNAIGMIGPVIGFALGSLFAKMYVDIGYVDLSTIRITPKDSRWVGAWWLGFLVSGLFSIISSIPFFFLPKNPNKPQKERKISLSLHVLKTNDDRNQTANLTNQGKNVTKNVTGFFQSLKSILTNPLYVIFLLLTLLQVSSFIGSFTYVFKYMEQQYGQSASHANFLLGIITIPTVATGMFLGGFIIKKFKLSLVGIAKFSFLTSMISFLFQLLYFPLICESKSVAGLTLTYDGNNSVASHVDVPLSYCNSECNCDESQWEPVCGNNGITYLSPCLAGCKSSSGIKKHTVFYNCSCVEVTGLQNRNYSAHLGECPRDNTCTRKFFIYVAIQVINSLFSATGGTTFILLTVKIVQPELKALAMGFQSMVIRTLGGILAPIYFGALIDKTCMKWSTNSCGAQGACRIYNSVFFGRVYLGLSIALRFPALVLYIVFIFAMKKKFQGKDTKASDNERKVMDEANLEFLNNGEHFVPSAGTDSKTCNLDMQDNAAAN
Briefly: Uptake by OATP1B3-expressing HEK293 cells. To be noted: positive control 20 μM, 10 min. The procedure:
as §3, §4

The subject of another data set is CYP3a. Briefly: CYP3a probe substrate turnover in microsomes from normal and LPS-treated mice. The class given is in vitro ADME, mouse. To be noted: microsomes of LPS-treated vs normal mice, Figure 4A.

Sequence of MDR1 (P-gp) (P08183 whole entry): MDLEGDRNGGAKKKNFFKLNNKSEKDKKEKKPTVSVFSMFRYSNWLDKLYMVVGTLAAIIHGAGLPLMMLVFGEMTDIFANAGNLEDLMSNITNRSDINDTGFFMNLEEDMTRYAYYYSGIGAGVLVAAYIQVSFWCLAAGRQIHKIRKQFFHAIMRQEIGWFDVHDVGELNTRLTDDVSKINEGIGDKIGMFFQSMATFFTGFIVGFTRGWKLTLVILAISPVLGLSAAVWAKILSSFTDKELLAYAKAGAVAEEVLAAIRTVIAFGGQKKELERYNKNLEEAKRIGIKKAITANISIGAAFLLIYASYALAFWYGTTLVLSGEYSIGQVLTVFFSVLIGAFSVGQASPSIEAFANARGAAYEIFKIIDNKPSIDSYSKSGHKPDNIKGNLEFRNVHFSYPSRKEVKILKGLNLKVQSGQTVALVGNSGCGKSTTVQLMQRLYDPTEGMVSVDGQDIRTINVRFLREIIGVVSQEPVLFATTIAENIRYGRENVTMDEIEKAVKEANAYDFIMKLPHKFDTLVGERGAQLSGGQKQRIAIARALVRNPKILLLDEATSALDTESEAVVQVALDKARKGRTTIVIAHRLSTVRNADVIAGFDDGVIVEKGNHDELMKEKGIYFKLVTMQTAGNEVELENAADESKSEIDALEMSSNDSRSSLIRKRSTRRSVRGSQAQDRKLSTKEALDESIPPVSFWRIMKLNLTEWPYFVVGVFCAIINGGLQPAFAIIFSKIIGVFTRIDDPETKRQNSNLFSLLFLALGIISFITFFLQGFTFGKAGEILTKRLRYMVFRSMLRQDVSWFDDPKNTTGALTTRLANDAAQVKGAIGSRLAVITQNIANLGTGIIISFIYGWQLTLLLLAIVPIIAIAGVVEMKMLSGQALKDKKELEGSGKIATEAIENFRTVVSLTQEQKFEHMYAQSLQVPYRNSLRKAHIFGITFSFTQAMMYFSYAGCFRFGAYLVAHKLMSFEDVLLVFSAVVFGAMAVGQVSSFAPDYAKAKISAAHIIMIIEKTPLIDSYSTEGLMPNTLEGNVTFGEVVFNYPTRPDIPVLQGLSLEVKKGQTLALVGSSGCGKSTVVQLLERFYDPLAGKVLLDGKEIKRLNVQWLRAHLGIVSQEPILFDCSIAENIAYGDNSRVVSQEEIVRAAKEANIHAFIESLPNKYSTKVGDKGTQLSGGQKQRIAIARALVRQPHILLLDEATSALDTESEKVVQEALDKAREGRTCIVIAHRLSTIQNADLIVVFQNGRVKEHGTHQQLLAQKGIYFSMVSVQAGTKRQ
Sequence of MDR1 (P08183 whole entry): as above

Take `C[C@H]1O[C@@H](O[C@H]2[C@@H](O)C[C@H](O[C@H]3[C@@H](O)C[C@H](O[C@H]4CC[C@@]5(C)[C@H](CC[C@@H]6[C@@H]5C[C@@H](O)[C@]5(C)[C@@H](C7=CC(=O)OC7)CC[C@]65O)C4)O[C@@H]3C)O[C@@H]2C)C[C@H](O)[C@@H]1O` [Digoxin, digoxin]: at MDR1 (P-gp) (human, LLC-PK1), the efflux ratio – broadly, a quotient of directional permeabilities that is used to spot active efflux – at 2 h came to 11.5. For the same molecule, on MDR1, the “Papp A-B” value was 0.98 ± 0.11 **^,## and the “Papp B-A” value was 11.27 ± 0.77 **^,##. Also, in data set [1], the Papp A→B – broadly, the apparent permeability from the apical to the basolateral side of a cell layer – at 2 h is 2.25 ± 0.26 ×10⁻⁶ cm/s; the basolateral-to-apical permeability (Papp B→A) (commonly the apparent permeability from the basolateral to the apical side of a cell layer) at 2 h worked out at 1.74 ± 0.2 ×10⁻⁶ cm/s; the efflux ratio at 2 h is 0.77.
In the case of `COCCc1ccc(OCC(O)CNC(C)C)cc1` (centres unmarked) [Metoprolol, metoprolol], the apparent permeability from apical to basolateral (Papp A→B) at 2 h stood at 28.2 ± 0.65 ×10⁻⁶ cm/s at MDR1 (P-gp) and 32.2 ± 2.8 ×10⁻⁶ cm/s in data set [1]. The Papp B→A at 2 h on MDR1 (P-gp) (human, LLC-PK1) is 28.3 ± 2.07 ×10⁻⁶ cm/s; in data set [1], 25 ± 0.3 ×10⁻⁶ cm/s. The efflux ratio at 2 h on MDR1 (P-gp) (human, LLC-PK1) was 1; in data set [1], 0.7.
As for `C[C@]12CC[C@@H]3c4ccc(O)cc4CC[C@H]3[C@@H]1CC[C@@H]2O[C@@H]1O[C@H](C(=O)O)[C@@H](O)[C@H](O)[C@H]1O` [Positive Control, 17β-estradiol-17β-D-glucuronide], the “Uptake Clearance” value is listed as 2.4 ± 0.03 nM/min/mg Protein in the data set on HEK293-MOCK cells (MOCK (OATP1B1 set)); 2.7 ± 0.07 nM/min/mg Protein in the data set with HEK293-MOCK cells (MOCK (OATP1B3 set)); 2.63 ± 0.08 nM/min/mg Protein with HEK293-MOCK cells (MOCK+RIF (OATP1B1 set)); 2.73 ± 0.08 nM/min/mg Protein in the data set with HEK293-MOCK cells (MOCK+RIF (OATP1B3 set)); 3.66 ± 0.03 nM/min/mg Protein at OATP1B3 (OATP1B3+RIF); 30.0 ± 1.46 **^, ## nM/min/mg Protein on OATP1B3 (OATP1B3 cells).
Consider `Cc1ncc2n1-c1ccc(Cl)cc1C(c1ccccc1F)=NC2` [midazolam], for which the “1′-hydroxylation reaction lowered by LPS-induced pneumonia” value in the data set with CYP3a (at 24 h) is on record as ~ 2.55 fold.
On to `C[C@]12CC[C@H]3[C@@H](CCC4=CC(=O)CC[C@@]43C)[C@@H]1CC[C@@H]2O` [testosterone], for which, in the data set on CYP3a, the “change of 6-β-hydroxylation reaction under inflammation state (no obvious alternation)” value was ~ 1.14 fold.
